Structures are written as SMILES.

In test [1] the target is T1, CHO cells expressing α2β1 integrin (Homo sapiens, UniProt P17301).
T1 sequence (P17301 1-1181): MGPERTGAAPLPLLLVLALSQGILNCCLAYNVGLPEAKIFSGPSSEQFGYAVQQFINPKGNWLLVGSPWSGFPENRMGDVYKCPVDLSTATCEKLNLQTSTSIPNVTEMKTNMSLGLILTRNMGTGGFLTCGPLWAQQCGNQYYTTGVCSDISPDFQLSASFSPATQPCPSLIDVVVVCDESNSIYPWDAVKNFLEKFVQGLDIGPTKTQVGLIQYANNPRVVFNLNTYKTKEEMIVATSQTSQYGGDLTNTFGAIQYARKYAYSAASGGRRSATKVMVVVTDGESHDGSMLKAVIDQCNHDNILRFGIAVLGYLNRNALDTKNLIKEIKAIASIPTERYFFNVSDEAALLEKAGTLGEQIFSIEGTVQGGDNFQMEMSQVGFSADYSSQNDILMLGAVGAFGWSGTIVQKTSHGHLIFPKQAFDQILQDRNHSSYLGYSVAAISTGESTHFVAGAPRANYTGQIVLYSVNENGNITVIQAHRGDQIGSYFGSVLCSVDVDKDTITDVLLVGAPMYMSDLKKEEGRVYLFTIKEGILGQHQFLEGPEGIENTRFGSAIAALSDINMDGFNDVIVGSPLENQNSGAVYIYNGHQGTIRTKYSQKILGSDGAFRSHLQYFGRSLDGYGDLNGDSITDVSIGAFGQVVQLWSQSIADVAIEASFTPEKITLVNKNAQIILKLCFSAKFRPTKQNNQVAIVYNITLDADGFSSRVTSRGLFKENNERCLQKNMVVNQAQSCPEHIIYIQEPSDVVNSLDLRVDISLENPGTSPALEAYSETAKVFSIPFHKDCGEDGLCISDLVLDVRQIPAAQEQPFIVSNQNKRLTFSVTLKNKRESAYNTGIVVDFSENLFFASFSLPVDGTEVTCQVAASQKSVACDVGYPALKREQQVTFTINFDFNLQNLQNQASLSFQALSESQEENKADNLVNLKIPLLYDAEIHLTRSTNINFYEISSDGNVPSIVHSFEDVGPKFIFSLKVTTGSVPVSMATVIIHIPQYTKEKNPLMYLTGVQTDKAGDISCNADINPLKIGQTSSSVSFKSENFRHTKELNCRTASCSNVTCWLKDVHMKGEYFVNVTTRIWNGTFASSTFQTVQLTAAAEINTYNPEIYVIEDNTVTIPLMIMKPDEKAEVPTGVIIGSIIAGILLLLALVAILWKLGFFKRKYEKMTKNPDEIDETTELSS
Briefly: Cell adhesion assay, CHO-α2 cells on collagen type I. Particulars: FIG. 10A, 10B. The class given is cell-based, Chinese Hamster. The procedure:
(§1) Chinese Hamster Ovary (CHO) cell clone expressing wild type α2 integrin was used in cell adhesion assay. Cells were suspended in serum free medium containing 0.1 mg/ml cycloheximide (Sigma) and the compounds were preincubated with the cells prior to transfer to the wells. Cells (150000/well) were allowed to attach on collagen type I coated wells (in the presence and absence of inhibitor compounds) for 2 h at +37° C. and after that non-adherent cells were removed. Fresh serum free medium was added and the living cells were detected using a cell viability kit (Roche) according to the manufacturers protocol.
(§2) For this purpose CHO cells were transfected to express α2β1 integrin on their surface as their only collagen receptor.

For test [2], the target named is T2, CHO cells expressing α2β1 integrin (Homo sapiens, UniProt P05556+P17301).
T2 sequence (P17301 1-1181): T1 sequence (P17301 1-1181)
The test is described as above. In kind it is cell-based, Chinese Hamster. Particulars: CHO cells expressing α2β1; FIG. 10A; read-out: EC50 of cell adhesion to type I collagen. The procedure: as §1, §2

In general, EC50 refers to the midpoint of the concentration-response curve. As for `COC(=O)c1c(C(C)C)cc(O)c2c(O)c3c(c(O)c12)C(=O)c1cccc(O)c1C3=O` [Compound L3009, methyl 4,5,7,12-tetrahydroxy-2-methylethyl)-6,11-dioxonaphthacenecarboxylate], the “inhibition of cell adhesion to collagen type I (in words)” value in test [1] was “potent inhibitor”. The EC50 in test [2] was approximately 20 µM.

Source of the values: patent US20090286713A9, “Collagen Receptor I-Domain Binding Modulators” (Biotie Therapies Corporation, priority 2005, published 2009).
